Results taken from article PMC5355037, “The repurposed anthelmintic mebendazole in combination with trametinib suppresses refractory NRAS^Q61K melanoma” (Oncotarget, 2017).
Each block holds one compound with its values, some of them ahead of it.

Tests used:
BRAF = BRAF (Homo sapiens, UniProt P15056); test: in vitro kinase assay, percent control and binding affinity
BRAF (V600E) = BRAF (V600E) (Homo sapiens, UniProt P15056, V600E); test: as above; settings: Kinase Target BRAF (V600E)
MEK1 = MEK1 (Homo sapiens, UniProt Q02750); test: in vitro kinase assay, percent control; format: binding; settings: Kinase Target MEK1
MEK2 = MEK2 (Homo sapiens, UniProt P36507); test: in vitro kinase assay, percent control; format: binding; settings: Kinase Target MEK2
C-RAF = C-RAF (Homo sapiens, UniProt P04049); test: in vitro kinase assay, percent control; format: binding; settings: Kinase Target C-RAF
VEGFR2 = VEGFR2 (Homo sapiens, UniProt P35968); test: in vitro kinase assay, percent control and binding affinity; settings: Kinase Target VEGFR2
[1] = system: BAK, BUL and STU melanoma cells; test: XTT cell viability assay, statements for all three lines; format: cell-based, human; settings: 72 h; for concentration at which significant growth inhibition was observed: 2-way ANOVA; for cytotoxic activity as single agent (in words): all three cell lines
Protocol: MBZ, dabrafenib, and trametinib were purchased from Sigma-Aldrich and ActiveBiochem, respectively. 5 × 10^3 viable cells per well were plated in 96-well dishes and allowed to recover for 12 h prior to drug treatment. Cells in triplicate wells were treated for up to 72 h (based on initial time course experiments showing maximal effects at that time point) with different concentrations of trametinib, dabrafenib, or MBZ alone, or a combination of MBZ and trametinib. Negative controls were exposed to vehicle DMSO in the same volumes. Cell viability was assessed by an XTT assay, according to a manufacturer's specifications (Biotium Inc). Reduced XTT was measured by absorbance at 490 nm on a PerkinElmer Victor3 plate reader. Cells exposed to detergent served as a positive control.
The results shown are based on a single experiment in triplicate, and repeated in three independent experiments with essentially the same results. Data from triplicates of treatment groups were compared using Student's t-test or 2-way ANOVA (multiple comparisons) for significance, and p values of < 0.05 were considered statistically significant. For tumor sizes, the rate-based T/C (tumor/control) test of significance was used as described, using the author's template. The results are representative of 3 independent experiments with reproducible results. For determining synergism, the combination index (τ) was calculated from single dose-response curves and combination experiments as τ = xA/XA+xB/XB, in which, for a given cytotoxic effect, xA and xB are the concentrations of drugs A and B in the combination, and XA and XB are the concentrations of drugs A and B that achieve the same cytotoxic effect when given alone. A τ value of 1 indicates additivity, τ less than 1 indicates synergy, and τ greater than 1 indicates antagonism.

[2] = system: BAK melanoma cells xenografted into athymic mice; test: mouse xenografting, tumor growth; format: in vivo; settings: gavage; for tumor growth (in words): trametinib 0.1 or 3 mg/kg/qd, alone or combined
Protocol: All animal experiments were performed in accordance with the guidelines and approval of Georgetown University Animal Care and Use Committee. Athymic 6-week old male mice (Taconic) were acclimated to the Division of Comparative Medicine at Georgetown University a week prior to xenografting. 3×10^6 melanoma cells were resuspended in Matrigel and injected subcutaneously into the hind flanks of athymic mice using a 22-gauge needle. […] Drugs were administered by oral gavage. Each testing group contained three to five mice in each of four experiments. Each tumor from each treatment group was measured on indicated days, and all tumor sizes were then normalized to their size at day 0 of drug treatment. All data from all four experiments was then combined for statistical analysis, to compare every mouse from each treatment group. […] The results were expressed as the mean (±SD) of tumor volume in each group. After five weeks, mice were euthanized; tumors extracts were derived for immunoblot analysis. […] This yields a similar constant to that calculated by Mosteller for humans: BSA (m^2) = [[…] (kg)]*60 [36]. […] For high dose trametinib, this is equivalent to 14.4 mg/person/day. […] By comparison, patient doses range from 100 mg one time (pinworms) to 200 mg/kg per day for 12 weeks ([…] disease in children) including doses up to 6 g per day. […] The results shown are based on a single experiment in triplicate, and repeated in three independent experiments with essentially the same results. […] For tumor sizes, the rate-based T/C (tumor/control) test of significance was used as described, using the author's template. The results are representative of 3 independent experiments with reproducible results. For determining synergism, the combination index (τ) was calculated from single dose-response curves and combination experiments as τ = xA/XA+xB/XB, in which, for a given cytotoxic effect, xA and xB are the concentrations of drugs A and B in the combination, and XA and XB are the concentrations of drugs A and B that achieve the same cytotoxic effect when given alone.

pMEK1/2 S217/221 = test: immunoblot analysis of BAK cells; format: cell-based, human; settings: 100 nM, combination within 30 min
Protocol: (§1) SDS-PAGE and transfer of separated proteins to nitrocellulose membranes were performed according to standard procedures. Membranes were stained with Ponceau S (0.1%) to verify equal loading and transfer of proteins, and then incubated with antibodies specific for pERK1/2 T202/Y204, pMEK1/2 S217/221, pBAD S-112, total BAD, total ERK1/2, total MEK1/2, BCL2 (Santa Cruz Biotech), BCLXL (Santa Cruz Biotech), cleaved PARP (Cell Signaling), or GAPDH (Abcam; loading control). Immune complexes were detected by incubation with appropriate horseradish peroxidase-conjugated antibodies to mouse or rabbit IgG (1:3000) and enhanced chemiluminescence (Pierce, Rockford, IL).

[3] = system: phosphorylation of ERK1/2 (T202/Y204); test: immunoblot analysis of BAK cells; format: cell-based, human; settings: 100 nM, combination undetectable by 30 min
Protocol: as §1

[4] = system: MEK1/2 and ERK1/2 phosphorylation; test: immunoblot analysis of tumor xenograft extracts; format: in vivo, mice; settings: tumors collected at termination; combination = HDT+MBZ
Protocol: All animal experiments were performed in accordance with the guidelines and approval of Georgetown University Animal Care and Use Committee. Athymic 6-week old male mice (Taconic) were acclimated to the Division of Comparative Medicine at Georgetown University a week prior to xenografting. 3×10^6 melanoma cells were resuspended in Matrigel and injected subcutaneously into the hind flanks of athymic mice using a 22-gauge needle. […] Drugs were administered by oral gavage. Each testing group contained three to five mice in each of four experiments. Each tumor from each treatment group was measured on indicated days, and all tumor sizes were then normalized to their size at day 0 of drug treatment. All data from all four experiments was then combined for statistical analysis, to compare every mouse from each treatment group. […] The results were expressed as the mean (±SD) of tumor volume in each group. After five weeks, mice were euthanized; tumors extracts were derived for immunoblot analysis. SDS-PAGE and transfer of separated proteins to nitrocellulose membranes were performed according to standard procedures. […] Immune complexes were detected by incubation with appropriate horseradish peroxidase-conjugated antibodies to mouse or rabbit IgG (1:3000) and enhanced chemiluminescence (Pierce, Rockford, IL).

VEGFR-2 = system: VEGFR-2; parameters: method as in PMID 26234515, PMID 22780961, PMID 24135855; settings: cited from earlier work
PDGFRA = system: PDGFRA; parameters: method as in PMID 26234515, PMID 22780961, PMID 24135855; settings: cited from earlier work
PDGFRB = system: PDGFRB; parameters: method as in PMID 26234515, PMID 22780961, PMID 24135855; settings: cited from earlier work
roundworm tubulin = molecular target: roundworm tubulin; parameters: method as in PMID 7388055; settings: nematode and cestode parasite tubulin; read-out: apparent binding affinity for tubulin; cited from earlier work
human tubulin = molecular target: human tubulin; parameters: method as in PMID 7388055; settings: much lower than for parasite tubulin; cited from earlier work
[5] = parameters: method as in PMID 7094986; settings: chronic oral MBZ 10 mg/kg/day, cited from earlier work
[6] = system: BAK and BUL melanoma cells; test: apoptosis (fluorometric caspase-3 activity, sub-G1) and cell cycle assays; format: cell-based, human; settings: 100 nM, all time points
Text: Cells were collected, fixed in ethanol, stained with propidium iodide (PI) to determine DNA content, and analyzed by flow cytometry (FACStar PLus; BD BioSciences, San Jose, CA).
Cytosolic extracts, derived from pooled floating and attached cells, were subjected to fluorometric caspase-3 activity assays using fluorescent tetrapeptide substrate specific for caspases-3 (Ac-DEVD-aminomethylcoumarin (AMC, Enzo Life Sciences, Ann Arbor, MI) as previously described. Free AMC, generated as a result of cleavage of the aspartate-AMC bond, was monitored over 30 min with a Wallac Victor^3 fluorometer (Perkin-Elmer, Waltham, MA) at excitation and emission wavelengths of 360 and 460 nm, respectively. The emission from each sample was plotted against time, and linear regression analysis of the initial velocity (slope) for each curve yielded the activity.

Sequence of BRAF (P15056 whole entry): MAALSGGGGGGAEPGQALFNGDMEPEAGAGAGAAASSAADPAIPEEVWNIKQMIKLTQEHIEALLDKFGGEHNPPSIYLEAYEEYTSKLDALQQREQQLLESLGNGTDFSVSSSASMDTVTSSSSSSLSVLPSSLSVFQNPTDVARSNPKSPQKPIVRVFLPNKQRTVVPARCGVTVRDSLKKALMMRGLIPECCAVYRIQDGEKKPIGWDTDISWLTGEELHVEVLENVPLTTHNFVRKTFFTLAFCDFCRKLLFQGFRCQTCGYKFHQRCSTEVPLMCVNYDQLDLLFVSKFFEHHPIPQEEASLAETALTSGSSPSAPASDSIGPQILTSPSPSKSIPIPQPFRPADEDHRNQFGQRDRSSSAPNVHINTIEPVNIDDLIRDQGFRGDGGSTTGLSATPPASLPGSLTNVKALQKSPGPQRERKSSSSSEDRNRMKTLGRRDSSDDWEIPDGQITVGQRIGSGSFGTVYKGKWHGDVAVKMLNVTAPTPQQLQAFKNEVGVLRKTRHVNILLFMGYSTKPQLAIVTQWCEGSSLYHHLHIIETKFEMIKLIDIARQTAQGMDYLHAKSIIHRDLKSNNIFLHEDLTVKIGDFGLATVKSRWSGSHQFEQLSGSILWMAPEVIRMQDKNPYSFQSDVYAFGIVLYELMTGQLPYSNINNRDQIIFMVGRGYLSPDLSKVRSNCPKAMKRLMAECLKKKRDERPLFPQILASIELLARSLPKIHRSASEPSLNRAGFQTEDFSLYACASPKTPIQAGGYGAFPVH
Sequence of BRAF (V600E) (P15056 whole entry V600E): as the sequence (P15056 whole entry) above, with V600E counted along it
Sequence of C-RAF (P04049 whole entry): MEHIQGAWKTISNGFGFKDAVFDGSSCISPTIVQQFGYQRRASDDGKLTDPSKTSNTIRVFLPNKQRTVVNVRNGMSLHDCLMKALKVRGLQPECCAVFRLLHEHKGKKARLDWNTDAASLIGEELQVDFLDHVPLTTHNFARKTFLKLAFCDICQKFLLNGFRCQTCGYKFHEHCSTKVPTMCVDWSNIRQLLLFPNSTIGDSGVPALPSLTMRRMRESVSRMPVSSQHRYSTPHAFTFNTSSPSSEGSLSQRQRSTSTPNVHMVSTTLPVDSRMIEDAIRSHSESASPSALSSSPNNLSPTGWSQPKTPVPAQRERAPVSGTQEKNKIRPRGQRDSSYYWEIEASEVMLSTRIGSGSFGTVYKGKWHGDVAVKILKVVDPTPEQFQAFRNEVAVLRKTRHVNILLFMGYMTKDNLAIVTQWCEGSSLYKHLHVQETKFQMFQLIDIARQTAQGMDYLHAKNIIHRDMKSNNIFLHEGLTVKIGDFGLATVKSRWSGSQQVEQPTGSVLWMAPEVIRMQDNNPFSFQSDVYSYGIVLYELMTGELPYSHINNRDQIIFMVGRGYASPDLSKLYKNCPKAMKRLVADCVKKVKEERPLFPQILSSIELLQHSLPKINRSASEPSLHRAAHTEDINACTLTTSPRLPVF
Sequence of MEK2 (P36507 whole entry): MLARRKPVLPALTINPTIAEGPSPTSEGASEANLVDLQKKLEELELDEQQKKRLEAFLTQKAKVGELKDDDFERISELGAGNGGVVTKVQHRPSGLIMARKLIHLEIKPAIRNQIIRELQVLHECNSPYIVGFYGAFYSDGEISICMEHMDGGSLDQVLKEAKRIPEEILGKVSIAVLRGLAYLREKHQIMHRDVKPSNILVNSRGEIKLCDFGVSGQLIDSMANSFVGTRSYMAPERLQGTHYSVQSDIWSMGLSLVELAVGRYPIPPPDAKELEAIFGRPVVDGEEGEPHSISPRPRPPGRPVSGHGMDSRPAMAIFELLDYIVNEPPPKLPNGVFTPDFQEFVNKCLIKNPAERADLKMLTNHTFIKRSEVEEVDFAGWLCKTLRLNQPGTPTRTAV
Sequence of MEK1 (Q02750 whole entry): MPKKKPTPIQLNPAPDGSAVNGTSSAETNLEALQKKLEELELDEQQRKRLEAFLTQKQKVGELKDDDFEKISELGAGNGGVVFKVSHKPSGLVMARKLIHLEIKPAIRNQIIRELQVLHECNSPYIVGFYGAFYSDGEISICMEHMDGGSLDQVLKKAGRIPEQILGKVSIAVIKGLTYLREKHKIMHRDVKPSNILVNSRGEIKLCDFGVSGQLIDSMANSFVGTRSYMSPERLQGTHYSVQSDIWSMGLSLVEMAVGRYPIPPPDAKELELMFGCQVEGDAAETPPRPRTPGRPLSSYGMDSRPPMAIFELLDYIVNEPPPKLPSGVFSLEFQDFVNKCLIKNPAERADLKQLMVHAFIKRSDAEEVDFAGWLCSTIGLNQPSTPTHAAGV
Sequence of VEGFR2 (P35968 20-1356): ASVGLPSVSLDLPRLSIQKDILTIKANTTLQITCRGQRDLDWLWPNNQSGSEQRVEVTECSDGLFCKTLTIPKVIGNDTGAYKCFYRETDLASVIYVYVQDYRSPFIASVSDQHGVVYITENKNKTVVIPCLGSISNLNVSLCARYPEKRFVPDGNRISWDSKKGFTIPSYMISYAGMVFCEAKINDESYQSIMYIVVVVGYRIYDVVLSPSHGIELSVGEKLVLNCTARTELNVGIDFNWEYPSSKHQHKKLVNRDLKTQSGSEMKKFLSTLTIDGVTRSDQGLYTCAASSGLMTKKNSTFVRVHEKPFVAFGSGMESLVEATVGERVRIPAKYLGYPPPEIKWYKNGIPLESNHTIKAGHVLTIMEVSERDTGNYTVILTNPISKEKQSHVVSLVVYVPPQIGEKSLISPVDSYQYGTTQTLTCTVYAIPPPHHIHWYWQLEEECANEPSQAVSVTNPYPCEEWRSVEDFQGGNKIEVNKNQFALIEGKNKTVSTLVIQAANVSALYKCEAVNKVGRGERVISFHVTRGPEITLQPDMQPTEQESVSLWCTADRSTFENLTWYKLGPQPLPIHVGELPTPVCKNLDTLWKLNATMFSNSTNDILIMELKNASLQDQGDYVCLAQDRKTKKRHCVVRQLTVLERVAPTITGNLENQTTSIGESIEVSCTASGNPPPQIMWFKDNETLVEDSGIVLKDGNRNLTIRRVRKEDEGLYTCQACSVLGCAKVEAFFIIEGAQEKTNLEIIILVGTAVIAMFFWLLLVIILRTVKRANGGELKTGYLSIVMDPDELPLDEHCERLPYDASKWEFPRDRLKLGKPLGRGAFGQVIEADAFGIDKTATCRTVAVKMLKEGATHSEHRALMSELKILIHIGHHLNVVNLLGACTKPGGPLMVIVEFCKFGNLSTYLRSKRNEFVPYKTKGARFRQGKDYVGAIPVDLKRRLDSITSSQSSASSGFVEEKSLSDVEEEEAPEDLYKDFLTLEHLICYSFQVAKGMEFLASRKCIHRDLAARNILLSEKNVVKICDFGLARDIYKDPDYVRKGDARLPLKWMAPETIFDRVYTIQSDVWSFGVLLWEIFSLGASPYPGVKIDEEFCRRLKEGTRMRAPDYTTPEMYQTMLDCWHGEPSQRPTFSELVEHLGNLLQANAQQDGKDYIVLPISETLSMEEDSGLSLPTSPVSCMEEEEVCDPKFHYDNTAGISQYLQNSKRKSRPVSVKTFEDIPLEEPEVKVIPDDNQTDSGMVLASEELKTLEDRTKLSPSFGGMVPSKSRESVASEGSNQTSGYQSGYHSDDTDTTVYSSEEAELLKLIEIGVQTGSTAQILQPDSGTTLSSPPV

remaining activity at 10 µM (BRAF; 10 μM, Kinase Target BRAF): 7.8%
Kd (BRAF; Kinase Target BRAF (BRAF^WT)): 230 nM
remaining activity at 10 µM (BRAF (V600E); 10 μM): 3.2%
Kd (BRAF (V600E)): 210 nM
remaining activity at 10 µM (MEK1): 16%
remaining activity at 10 µM (MEK2): 12%
remaining activity at 10 µM (C-RAF): 23%
remaining activity at 10 µM (VEGFR2): 20%
Compound: COC(=O)Nc1nc2ccc(C(=O)c3ccccc3)cc2[nH]1 [MBZ, methyl N-[6-(benzoyl)-1H-benzimidazol-2-yl] carbamate]
concentration at which significant growth inhibition was observed [1]: ≥ 10 nM
cytotoxic activity as single agent (in words) [1]: weak cytotoxic activity
Rate-based T/C ([2]; MBZ vs Vehicle, MBZ 40 mg/kg/qad): 1.04
tumor growth (in words) ([2]; MBZ 40 mg/kg/qad): did not work as a monotherapy
pMEK1/2 S217/221 activating phosphorylation (in words) (pMEK1/2 S217/221): not inhibited
activating phosphorylation of ERK1/2 (T202/Y204) (in words) [3]: diminished
MEK1/2 and ERK1/2 phosphorylation in tumors (in words) [4]: ability to suppress
concentration at which MBZ inhibits VEGFR-2 (VEGFR-2): 3.6 µM
concentration at which MBZ inhibits PDGFRA (PDGFRA): 820 nM
concentration at which MBZ inhibits PDGFRB (PDGFRB): 660 nM
Kd (roundworm tubulin): 19 nM
affinity for human tubulin (human tubulin): µM range
peak plasma level, variability between patients [5]: 0.34 to 1.69 µM
mean peak plasma level ([5]; patients): 470 nM

Compound: CC(=O)Nc1cccc(-n2c(=O)n(C3CC3)c(=O)c3c(Nc4ccc(I)cc4F)n(C)c(=O)c(C)c32)c1 [trametinib]
concentration at which significant growth inhibition was observed [1]: ≥ 1 nM
Rate-based T/C ([2]; HDT vs Vehicle, high dose trametinib 3 mg/kg/qd): 0.73
Rate-based T/C ([2]; LDT vs Vehicle, low dose trametinib 0.1 mg/kg/qd): 0.93
tumor growth (in words) ([2]; MBZ 40 mg/kg/qad): did not show any significant tumor-suppressive effects
percentage of cells in S phase (in words) [6]: decreased
pMEK1/2 S217/221 activating phosphorylation (in words) (pMEK1/2 S217/221): not inhibited
activating phosphorylation of ERK1/2 (T202/Y204) (in words) [3]: diminished
MEK1/2 and ERK1/2 phosphorylation in tumors (in words) [4]: ability to suppress

Compound: CC(C)(C)c1nc(-c2cccc(NS(=O)(=O)c3c(F)cccc3F)c2F)c(-c2ccnc(N)n2)s1 [dabrafenib]
concentration at which significant growth inhibition was observed [1]: ≥ 1000 nM
cytotoxic activity as single agent (in words) [1]: resistance to dabrafenib except at the highest doses tested
